This note sets out measurements from ChEMBL document CHEMBL4622963, “Optimization of Nicotinamides as Potent and Selective IRAK4 Inhibitors with Efficacy in a Murine Model of Psoriasis” (ACS Med Chem Lett, 2020).

Data set [1] deals with T1, Interleukin-1 receptor-associated kinase 4 (Homo sapiens, UniProt Q9NWZ3).
T1 sequence (Q9NWZ3 whole entry): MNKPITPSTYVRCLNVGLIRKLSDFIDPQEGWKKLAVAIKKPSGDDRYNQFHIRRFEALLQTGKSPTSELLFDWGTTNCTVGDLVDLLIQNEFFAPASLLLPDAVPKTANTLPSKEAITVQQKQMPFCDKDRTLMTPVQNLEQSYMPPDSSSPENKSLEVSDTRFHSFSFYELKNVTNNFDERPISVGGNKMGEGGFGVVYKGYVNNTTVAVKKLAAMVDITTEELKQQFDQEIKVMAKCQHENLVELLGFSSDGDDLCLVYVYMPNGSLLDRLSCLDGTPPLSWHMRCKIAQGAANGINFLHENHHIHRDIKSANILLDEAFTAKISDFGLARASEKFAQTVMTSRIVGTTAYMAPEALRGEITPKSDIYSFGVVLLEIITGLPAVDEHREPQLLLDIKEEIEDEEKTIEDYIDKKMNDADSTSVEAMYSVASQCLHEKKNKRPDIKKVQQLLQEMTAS
Briefly: Inhibition of IRAK4 in human PBMC assessed as inhibition of LTA-induced IL-6 production preincubated for 30 mins followed by LTA-stimulation and measured after 5 hrs by ELISA. It is filed as cell-based.

A short description of data set [2]: Stability in human liver microsomes assessed as parent compound remaining. Format: ADME, Microsome.
Data set [3] is filed under the species Homo sapiens. As to the kind of experiment: Selectivity index, ratio of IC50 for N-terminal His6-tagged human full length recombinant LCK expressed in baculovirus infected Sf21 cells to IC50 for IRAK4 (unknown origin).
Data set [4] in a line: Stability in mouse liver microsomes assessed as parent compound remaining measured after 10 mins. Format: ADME, Microsome. The conditions noted are these: read-out: Stability.
Data set [5] deals with T1, Interleukin-1 receptor-associated kinase 4. Briefly: Inhibition of IRAK4 in human whole blood assessed as inhibition of LTA-induced IL-6 production preincubated for 30 mins followed by LTA-stimulation and measured after 5 hrs by ELISA. It is filed as tissue-based.
For data set [6] the target is unchanged. Briefly: Inhibition of IRAK4 (unknown origin) using FL-IPTSPITTTYFFFKKK peptide and ATP as substrate incubated for 60 mins by fluorescence based caliper assay.
Data set [7] in a line: Permeability across apical to basolateral side in human Caco2 cells. The conditions noted are these: Caco-2.
The species named for data set [8] is Homo sapiens. As to the kind of experiment: Selectivity index, ratio of IC50 for recombinant N-terminal GST-tagged human cKit (544 to end residues) expressed in baculovirus infected Sf21 cells to IC50 for IRAK4 (unknown origin).

Take `CC(C)(O)CCNC(=O)c1cnc(Nc2ccc3ncsc3c2)cc1NC1CC1`: the IC50 in data set [1] came to 290 nM; in data set [5], 900 nM. For the same compound, in data set [2], the Stability stood at 65%. Further, in data set [3], the Ratio IC50 was determined as 200. The remaining at 10 min in data set [4] was 99%.
Turning to `CCCNC(=O)c1cnc(Nc2ccc3ncsc3c2)cc1NC(C)C`, the Stability in data set [2] was 52%. Besides, the remaining at 10 min in data set [4] is 32%. Besides, the IC50 in data set [6] worked out at 12 nM.
Compound `CNC(=O)c1cnc(Nc2ccc3ncsc3c2)cc1N[C@H](CO)Cc1ccccc1` gave a Papp A→B in data set [7] of less than 1.5 ×10⁻⁶ cm/s. Besides, the Stability in data set [2] turned out to be 46%. Further, in data set [4], the remaining at 10 min was determined as 29%.
For `CNC(=O)c1cnc(Nc2ccc3ncsc3c2)cc1N[C@@H](c1ccccc1)[C@H](O)CO` the same measures were less than 1.5 ×10⁻⁶ cm/s, 90% and 22%.
Consider `CC(C)Nc1cc(Nc2ccc3ncsc3c2)ncc1C(=O)NCCC(C)(C)O`, for which the figures for the IC50 in data set [1] and in data set [5] were 290 nM and 1100 nM, respectively. Further, the Stability in data set [2] stood at 79%. The Ratio IC50 in data set [3] worked out at 104. Also, in data set [4], the remaining at 10 min was determined as 68%.
Take `CC(C)Nc1cc(Nc2ccn3nccc3c2)ncc1C(=O)NC[C@@H](F)C(C)(C)O`: the IC50 in data set [1] worked out at 410 nM; in data set [5] it was 650 nM. Also, the Ratio IC50 in data set [8] is 240; in data set [3], greater than 380. Besides, the Stability in data set [2] came out at 78%. In data set [4], the remaining at 10 min was 85%.
In the case of `CC(C)Nc1cc(Nc2ccc3ncsc3c2)ncc1C(=O)NCC(F)(F)C(C)(C)O`, the IC50 in data set [1] amounted to 570 nM; in data set [5], 2800 nM. Besides, in data set [2], the Stability was 71%. In addition, in data set [3], the Ratio IC50 came out at 320. Further, in data set [4], the remaining at 10 min was 61%.
`CNC(=O)c1cnc(Nc2ccc3ncsc3c2)cc1NC(C)C` showed a Papp A→B in data set [7] of 21 ×10⁻⁶ cm/s. In addition, the IC50 in data set [1] amounted to 4500 nM; in data set [6], 21 nM. Besides, in data set [3], the Ratio IC50 stood at 28.
For `CC(C)Nc1cc(Nc2ccc3ncsc3c2)ncc1C(=O)NC[C@@H](F)C(C)(C)O`, the IC50 in data set [1] was 480 nM; in data set [5], 2000 nM; in data set [6], 2.4 nM. Also, the Stability in data set [2] was determined as 92%. For the same compound, the Ratio IC50 in data set [3] stood at 270. The remaining at 10 min in data set [4] was determined as 86%.
`CC(C)Nc1cc(Nc2ccc3nsnc3c2)ncc1C(=O)NC[C@@H](F)C(C)(C)O`: the IC50 in data set [1] was 320 nM; in data set [5] it was 1160 nM. Moreover, the Ratio IC50 in data set [8] was greater than 15000; in data set [3] it was 93. Moreover, the Stability in data set [2] was 74%. Moreover, in data set [4], the remaining at 10 min turned out to be 80%.
In the case of `CC(C)Nc1cc(Nc2ccc3ncsc3c2)ncc1C(=O)NC[C@@H](C)C(C)(C)O`, the IC50 in data set [1] came out at 2900 nM; in data set [6] it was 19 nM.
In the case of `CC(C)Nc1cc(Nc2ccc3ncsc3c2)ncc1C(=O)NCCCO`, the half-inhibitory concentration (IC50) in data set [1] came out at 6900 nM; in data set [6] it was 24 nM. Besides, the Stability in data set [2] is recorded as 84%. The Ratio IC50 in data set [3] amounted to 16. The remaining at 10 min in data set [4] was 87%.
Regarding `Cc1nc2ccc(Nc3cc(NC(C)C)c(C(=O)NC[C@@H](F)C(C)(C)O)cn3)cc2s1`, the IC50 in data set [1] was found to be 1700 nM; in data set [5], 12000 nM; in data set [6], 8 nM. The Ratio IC50 is 6200 in data set [8] and 3500 in data set [3]. In addition, the Stability in data set [2] stood at 92%. The remaining at 10 min in data set [4] is 78%.
Regarding `CC(C)(O)[C@@H](F)CNC(=O)c1cnc(Nc2ccc3ncsc3c2)cc1NC1CC1`, the IC50 in data set [1] worked out at 730 nM. In data set [3], the Ratio IC50 came out at 110.
For the compound `CCNC(=O)c1cnc(Nc2ccc3ncsc3c2)cc1NC(C)C`, in data set [2], the Stability is reported as 74%. Further, the remaining at 10 min in data set [4] was found to be 45%. Further, 15 nM corresponded to half-maximal inhibition in data set [6] (IC50).
For `CCCCNC(=O)c1cnc(Nc2ccc3ncsc3c2)cc1NC(C)C` the same measures were 55%, 31% and 7 nM.
